This note sets out measurements from ChEMBL document CHEMBL6071212, “Studies of Structure-Activity Relationship of 2-(Pyrrolidin-1ylmethyl)-1H-pyrrole-Based ST2 Inhibitors and Their Inhibition of Mast Cells Activation” (ACS Med Chem Lett, 2024).

Active and inactive are the calls of the source. The calls are words filed in the database; no cut-off is given here.

In general, IC50 refers to the concentration that inhibits the measured activity by half. The half-life is how long it takes for the measured level to halve.

The nature of data set [1]: Inhibition of ST2/IL-33 (unknown origin) by AlphaLISA assay. The arrangement: species or system Homo sapiens.
A short description of data set [2]: Inhibition of ST2/IL-33 (unknown origin) expressed in HEK-Blue IL-33 cells assessed as decrease in NF-kappaB […]. In kind it is cell-based. The following applies: Homo sapiens.
Data set [3] can be described thus: Metabolic stability in mouse liver microsomes assessed as half life. The class given is ADME, Microsome. (Liver microsomes are vesicles of endoplasmic reticulum, rich in cytochrome P450 enzymes.)
Data set [4] has as its system LAD2. The data set can be described thus: Inhibition of ST2 in IL-33-stimulated human LAD2 cells assessed as residual activity at 30 uM incubated for 24 hrs by flow cytometry (reference value: 24.18 %). In kind it is cell-based. In general terms: A flow cytometer gives signals particle by particle.
The test system of data set [5] is LAD2. Description: Inhibition of IL-1beta secretion in IL-33/substance P-stimulated human LAD2 cells at 50 uM incubated for 24 hrs followed by 48/80 addition measured after 30 mins by ELISA. In kind it is functional, cell-based. For orientation: ELISA stands for enzyme-linked immunosorbent assay.
The test system of data set [6] is LAD2. Description: Inhibition of IL-1beta secretion in IL-33/substance P-stimulated human LAD2 cells incubated for 24 hrs followed by 48/80 addition measured after 30 mins by ELISA. In kind it is functional, cell-based. The following applies: dose 10-30 µM, time 24.5 hrs.

`CCNC(=O)c1cc(-c2ccc(CN3CCCC3c3ccc(N(C)C)cc3)[nH]2)ccc1[N+](=O)[O-]` (configuration not stated): in data set [1], the IC50 turned out to be 46.9 µM.

`CN(C)c1ccc(C2CCCN2Cc2ccc(-c3ccc(C#N)cc3)[nH]2)cc1` (configuration not stated) yielded an IC50 in data set [1] of 33 µM. For `COC(=O)c1cc(-c2ccc(CN3CCCC3c3ccc(N(C)C)cc3)[nH]2)ccc1[N+](=O)[O-]` (configuration not stated), the IC50 in data set [2] worked out at 6.52 µM; in data set [1], 8.1 µM. Also, in data set [3], the half-life was 2.2 min. For `Cc1ccc([N+](=O)[O-])c(-c2ccc(CN3CCCC3c3ccc(N(C)C)cc3)[nH]2)c1` (configuration not stated), the IC50 is 10.6 µM in data set [2] and 12.1 µM in data set [1].

The molecule `CN(C)c1ccc(C2COCCN2Cc2ccc(-c3ccc([N+](=O)[O-])cc3)[nH]2)cc1` (configuration not stated) returned an IC50 in data set [1] of 80.2 µM. Regarding `COc1cc(-c2ccc(CN3CCCC3c3ccc(N(C)C)cc3)[nH]2)ccc1[N+](=O)[O-]` (configuration not stated), the IC50 came to 7.15 µM in data set [2] and 12.2 µM in data set [1]. In addition, in data set [4], the Activity came out at 19.8%. Also, the half-life in data set [3] is 7.8 min.

`CN(C)c1ccc(C2CCCN2Cc2ccc(-c3ccc([N+](=O)[O-])c(CO)c3)[nH]2)cc1` (configuration not stated) had an IC50 in data set [1] of 20.3 µM. The same measure, in the same setting: the figure for `CN(C)c1ccc(C2CCCN2Cc2cc(-c3ccc([N+](=O)[O-])cc3)[nH]n2)cc1` (configuration not stated) is more than 100 µM. With `CN(C)c1ccc(C2CCCN2Cc2ccc(-c3ccc(C(N)=O)cc3)[nH]2)cc1` (configuration not stated), inhibition in data set [1] was half-maximal at 79.6 µM (IC50). `CC(C)Oc1cc(-c2ccc(CN3CCCC3c3ccc(N(C)C)cc3)[nH]2)ccc1[N+](=O)[O-]` (configuration not stated): the IC50 is 10.2 µM in data set [2] and 15.6 µM in data set [1]. Moreover, the half-life in data set [3] was 1.91 min.

For the molecule `CN(C)c1ccc(C2CCCN2Cc2ccc(-c3ccc([N+](=O)[O-])c(C(N)=O)c3)[nH]2)cc1` (configuration not stated), the IC50 in data set [1] was 37.1 µM.

For `COc1cc(OC)c2c(=O)cc(-c3ccc(OC)c(OC)c3)oc2c1`, the inhibition result in data set [5] is “Active”. For `Cc1ccc(-c2ccc(CN3CCCC3c3ccc(N(C)C)cc3)[nH]2)c([N+](=O)[O-])c1` (configuration not stated), the IC50 in data set [2] came to 10.3 µM; in data set [1], 20 µM. `CN(C)c1ccc(C2COCCN2Cc2ccc(-c3ccc4c(c3)OCO4)[nH]2)cc1` (configuration not stated): the figures for the IC50 in data set [2] and in data set [1] were 10.2 µM and 12.9 µM, respectively. Consider `Cc1cc(-c2ccc(CN3CCCC3c3ccc(N4CCCC4)cc3)[nH]2)ccc1[N+](=O)[O-]` (configuration not stated), for which the IC50 in data set [2] came to 11 µM; in data set [1] it was 7.48 µM. The half-life in data set [3] is 4.59 min. In turn, `CN(C)c1ccc(C2CCCN2Cc2cnc(-c3ccc([N+](=O)[O-])cc3)[nH]2)cc1` (configuration not stated) gave an IC50 in data set [1] of 24 µM. Regarding `Cc1cc(-c2ccc(CN3CCCC3c3cccc(N[C@@H]4CCOC4)c3)[nH]2)ccc1[N+](=O)[O-]` (some centres not stated), the IC50 in data set [1] was 75.6 µM. As for `CN(C)c1ccc(C2CCCN2Cc2ccc(-c3ccc([N+](=O)[O-])c(C#N)c3)[nH]2)cc1` (configuration not stated), the IC50 in data set [1] came out at 12.8 µM. In the case of `CN(C)c1ccc(C2CCCCN2Cc2ccc(-c3ccc([N+](=O)[O-])cc3)[nH]2)cc1` (configuration not stated), the IC50 in data set [2] is 8.47 µM; in data set [1], 16.2 µM. In the case of `Cc1cc(-c2ccc(CN3CCCC3c3ccc(N(C)C)cc3)[nH]2)ccc1[N+](=O)[O-]` (configuration not stated), the IC50 in data set [2] was 9.57 µM; in data set [1] it was 8.12 µM. Further, in data set [3], the half-life stood at 1.86 min. For the molecule `Cc1cc(-c2ccc(CN3CCCC3c3cccc(N4CCCC4)c3)[nH]2)ccc1[N+](=O)[O-]` (configuration not stated), the IC50 in data set [2] was 12.1 µM; in data set [1] it was 7.74 µM. The like results for `Cc1cc([N+](=O)[O-])ccc1-c1ccc(CN2CCCC2c2ccc(N(C)C)cc2)[nH]1` (configuration not stated) were, in that order, 7.26 µM and 17.9 µM. Turning to `CN(C)c1ccc(C2CCCN2Cc2ccc(-c3ccc([N+](=O)[O-])cc3)n2C)cc1` (configuration not stated), in data set [1], the IC50 is 10.7 µM.

As for `Cc1cc(-c2ccc(CN3CCCC3c3cccc(N[C@H]4CCOC4)c3)[nH]2)ccc1[N+](=O)[O-]` (some centres not stated), the IC50 in data set [1] turned out to be 56.2 µM. `CN(C)c1ccc(C2SCCN2Cc2ccc(-c3ccc([N+](=O)[O-])cc3)[nH]2)cc1` (configuration not stated): the IC50 in data set [2] came out at 17.8 µM; in data set [1], 26.9 µM. For `CN(C)c1ccc(C2CCCN2Cc2ncc(-c3ccc([N+](=O)[O-])cc3)[nH]2)cc1` (configuration not stated), the IC50 in data set [1] turned out to be 17.7 µM.

Turning to `Cc1cc(-c2ccc(CN3CCCC3c3cccc(N4CCC(O)C4)c3)[nH]2)ccc1[N+](=O)[O-]` (configuration not stated), the IC50 in data set [1] worked out at 53.5 µM. On to `CN(C)c1ccc(C2CCCN2Cc2ccc(-c3ccc([N+](=O)[O-])c(N4CCCC4)c3)[nH]2)cc1` (configuration not stated), for which the IC50 in data set [2] stood at 7.19 µM; in data set [1] it was 7 µM. In addition, in data set [6], the inhibition entry is “Dose-Dependent Effect”. For the same molecule, the half-life in data set [3] stood at 1.47 min. With `Cc1cc(-c2ccc(CN3CCCC3c3cccc(N(C)C)c3)[nH]2)ccc1[N+](=O)[O-]` (configuration not stated), half-maximal inhibition in data set [1] (IC50) was put at 10 µM. Regarding `CN(C)c1ccc(C2CCCN2Cc2ccc(-c3ccc([N+](=O)[O-])cc3)[nH]2)cc1` (configuration not stated), the IC50 in data set [2] was found to be 16.2 µM; in data set [1], 13 µM. Consider `CN(C)c1ccc(C2CCCN2Cc2ccc(-c3ccc([N+](=O)[O-])cc3)o2)cc1` (configuration not stated), for which the IC50 in data set [1] was determined as 17.4 µM. Same read-out and setting: the figure for `Cc1cc(-c2ccc(CN3CCCC3c3cccc(N4CCC4)c3)[nH]2)ccc1[N+](=O)[O-]` (configuration not stated) is 14.7 µM; for `CN(C)c1ccc(C2CCCN2Cc2c[nH]c(-c3ccc([N+](=O)[O-])cc3)c2)cc1` (configuration not stated) it is 17.9 µM; for `CN(C)c1ccc(C2CCCN2Cc2ccc(-c3ccc([N+](=O)[O-])cc3)s2)cc1` (configuration not stated) it is 14.1 µM.

As to `Cc1cc([N+](=O)[O-])ccc1-c1ccc(CN2CCCC2c2ccc(N(C)C)cc2)o1` (configuration not stated), the values for the IC50 in data set [2] and in data set [1] were 52.5 µM and 7.77 µM, respectively. In data set [3], the half-life was 3.64 min. For `CN(C)C(=O)c1cc(-c2ccc(CN3CCCC3c3ccc(N(C)C)cc3)[nH]2)ccc1[N+](=O)[O-]` (configuration not stated), in data set [1], the IC50 was 25 µM.

Turning to `CN(C)c1ccc(C2CCCN2Cc2ccc(-c3ccc([N+](=O)[O-])c(C(=O)O)c3)[nH]2)cc1` (configuration not stated), in data set [1], the IC50 is more than 100 µM. With `CCn1c(CN2CCCC2c2ccc(N(C)C)cc2)ccc1-c1ccc([N+](=O)[O-])cc1` (configuration not stated), the IC50 in data set [1] amounted to 14.8 µM.
